Measured values published in patent US8148531B2 (Chroma Therapeutics Ltd., priority 2005, dated 2012).

Experiments:
[1] = biological target: T1, Aurora-A (Homo sapiens, UniProt O14965); assay: Aurora-A enzyme assay (MBP-coated Flashplate, γ-33P-ATP); format: biochemical; settings: IC50 range class; read-out: Inhibitor Activity vs Aurora-A
T1 sequence (O14965 1-403): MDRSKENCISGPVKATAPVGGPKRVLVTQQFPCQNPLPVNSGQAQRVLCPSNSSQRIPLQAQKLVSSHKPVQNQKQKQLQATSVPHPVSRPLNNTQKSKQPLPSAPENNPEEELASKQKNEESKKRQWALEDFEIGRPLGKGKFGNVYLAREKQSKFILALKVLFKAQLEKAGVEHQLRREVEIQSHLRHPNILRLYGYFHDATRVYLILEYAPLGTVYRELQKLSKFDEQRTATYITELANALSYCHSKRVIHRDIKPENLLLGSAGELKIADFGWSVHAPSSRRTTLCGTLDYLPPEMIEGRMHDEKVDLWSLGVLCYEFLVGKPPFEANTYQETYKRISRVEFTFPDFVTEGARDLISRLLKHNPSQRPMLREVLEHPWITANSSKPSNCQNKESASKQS
How it was run: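 Aurora-A incubated with γ-33P-ATP in myelin basic protein-coated Flashplate wells, 1 h at 37° C, then washed and scintillation counted. IC50 obtained by sigmoidal variable-slope nonlinear regression of % activity against log compound concentration.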

[2] = tested on: HCT 116 cell line; assay: Cell inhibition assay (SRB cell viability), HCT 116; format: cell-based; settings: Homo sapiens, IC50 range class, 72 h, read-out: Inhibitor Activity vs HCT 116 cell line
How it was run: (§1)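 Log-phase cells seeded at 1000 cells/well, grown 24 h, then exposed to compounds (20 uM final) for 72 h. Viability read by sulphorhodamine B staining as % inhibition versus DMSO; IC50 from eight-point sigmoidal variable-slope fit.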

[3] = biological target: Aurora-B (Homo sapiens, UniProt Q96GD4); assay: Aurora-B enzyme assay (identical protocol as Aurora-A); format: biochemical; settings: IC50 range class; read-out: Inhibitor Activity vs Aurora-B
How it was run: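 Aurora-B was assayed in the same way as Aurora-A: kinase and γ-33P-ATP were incubated for 1 h at 37 °C in myelin basic protein-coated scintillation plates. After washing, bound radioactivity was counted. IC50 values came from a variable-slope sigmoidal fit of % activity against log compound concentration.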

[4] = tested on: HUT cell line; assay: Cell inhibition assay (SRB cell viability), HUT; format: cell-based; settings: IC50 range class, 72 h, read-out: Inhibitor Activity vs HUT cell line
How it was run: as §1

[5] = tested on: U937 cell line; assay: Cell inhibition assay (SRB cell viability), U937; format: cell-based; settings: Homo sapiens, U-937, IC50 range class, 72 h, read-out: Inhibitor Activity vs U937 cell line
How it was run: as §1

Chain of Aurora-B (Q96GD4 whole entry): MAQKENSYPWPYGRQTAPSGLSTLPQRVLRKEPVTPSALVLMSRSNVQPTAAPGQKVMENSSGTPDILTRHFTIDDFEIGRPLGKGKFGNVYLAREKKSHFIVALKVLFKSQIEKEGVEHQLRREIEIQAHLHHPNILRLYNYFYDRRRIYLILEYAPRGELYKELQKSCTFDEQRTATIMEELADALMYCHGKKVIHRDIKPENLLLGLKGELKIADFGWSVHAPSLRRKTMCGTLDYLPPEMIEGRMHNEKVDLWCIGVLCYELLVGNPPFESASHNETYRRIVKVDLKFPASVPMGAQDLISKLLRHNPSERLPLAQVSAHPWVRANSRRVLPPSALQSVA

IC50 [1] [nM] | IC50 [2] [nM] | IC50 [3] [nM] | IC50 [5] [nM] | Structure (SMILES) | IC50 [4] [nM]
2000 to 5000 | < 1000 | 2000 to 5000 | < 1000 | COc1cc2c(Oc3ccc(NC(=O)c4ccccc4)cc3)ccnc2cc1OCCC[C@@H](N)C(=O)OC1CCCC1 [Example 115, (R)-2-Amino-5-[4-(4-benzoylamino-phenoxy)-6-methoxy-quinolin-7-yloxy]-pentanoic acid cyclopentyl ester] | < 1000
< 2000 | < 1000 | < 2000 | < 1000 | COc1cc2c(Oc3ccc(NC(=O)Nc4ccc(C(F)(F)F)cc4)cc3)ccnc2cc1OCCC[C@@H](N)C(=O)OC1CCCC1 [Example 119, (R)-2-Amino-5-(6-methoxy-4-{4-[3-(4-trifluoromethyl-phenyl)-ureido]-phenoxy}-quinolin-7-yloxy)-pentanoic acid cyclopentyl ester] | < 1000
2000 to 5000 | < 1000 | 2000 to 5000 | < 1000 | COc1cc2c(Oc3ccc(NC(=O)Nc4ccc(C(F)(F)F)cc4)cc3F)ccnc2cc1OCC[C@H](N)C(=O)OC1CCCC1 [Example 125, (S)-2-Amino-4-(4-{2-fluoro-4-[3-(4-trifluoromethyl-phenyl)-ureido]-phenoxy}-6-methoxy-quinolin-7-yloxy)-butyric acid cyclopentyl ester] | < 1000
